# Values quoted from earlier work as cited in patent US20100227930A1 (priority 2009, published 2010).
# Legend:
# rainbow trout = conditions: in vivo
# algae = conditions: duration not given
# fish = conditions: in vivo
# [1] = species not given
# [2] = compared with the 2:1:1 blend of three quaternary ammonium compounds
structure (smiles),measurement,setting,value
"O=C([O-])CCC(C(=O)[O-])N(CC(=O)[O-])CC(=O)[O-].[Na+].[Na+].[Na+].[Na+] (stereo not drawn) [Dissolvine GL, Glutamic acid, N,N Diacetic acid and their Tetrasodium salts]",EC50 Daphnia Magna,Daphnia magna; duration not given,> 100 µg/mL
same,EC50 fish (rainbow trout),rainbow trout,> 100 µg/mL
same,EC50 Algae,algae,> 100 µg/mL
"O=C([O-])CC(NC(CC(=O)[O-])C(=O)[O-])C(=O)[O-].[Na+].[Na+].[Na+].[Na+] (stereo not drawn) [IDS, iminodisuccinate tetrasodium salt]",EC0 Daphnia Magna,Daphnia magna; in vivo,84 mg/L
same,acute aquatic toxicity fish,fish,82.6 mg/L
same,EC50 Algae,algae,94.5 µg/mL
same,DL50 oral rat acute toxicity,,"over 2,000 mg/kg"
COC(C)COC(C)CO (stereo not drawn) [Dipropylene glycol methyl ether],aquatic acute toxicity,[1],> 100 mg/L
CCCCCCCCCC[N+](C)(C)CCCCCCCCCC.[Cl-] [didecyl dimethyl ammonium chloride],water solubility,[2],poorer water solubility
